These results are taken from US20210077562A1, “ETBR ANTAGONIST COMPOUNDS, COMPOSITIONS, AND USES” (ENB Therapeutics, Inc., priority 2018, published 2021).

The conditions of data set [1]: cited from earlier work.
In data set [2] the test system is V600E+ (BRAF mutated) SM1 tumor. The experiment in a line: SM1 tumor model, in vivo tumor growth curve over 21 days. On the set-up: species or system C57BL/6 mice. From the text: In this study 6-8 week old female C57BL/6 mice were inoculated with SM1 tumor fragments (TME* components present).

As for `CCCC[C@@H](NC(=O)[C@@H](Cc1cn(C(=O)OC)c2ccccc12)NC(=O)[C@H](CC(C)(C)C)NC(=O)N1[C@H](C)CCC[C@@H]1C)C(=O)O` [BQ788, (2R)-2-[[(2R)-2-[[(2S)-2-[[(2R,6S)-2,6-dimethylpiperidine-1-carbonyl]amino]-4,4-dimethylpentanoyl]amino]-3-(1-methoxycarbonylindol-3-yl)propanoyl]amino]hexanoic acid], in data set [1], the degradation in plasma entry is recorded as “rapidly degraded in plasma”.

`CC(C)(C)c1nc(-c2cccc(NS(=O)(=O)c3c(F)cccc3F)c2F)c(-c2ccnc(N)n2)s1` [dabrafenib]: the “tumor growth (FIG. 3), standard combination” value in data set [2] (dabrafenib 30 mg/kg daily by oral gavage + immune checkpoint inhibitors 10 mg/kg Q4D IP, 21 days) is recorded as “failed to shrink tumors but demonstrated intermediate tumor growth inhibition”. Besides, the “efficacy on addition to anti-PD1/ETBR antagonist combination” value in data set [2] (three-part combination therapy) was “impairs efficacy”.
